Legend:
[1] = test system: BIM, Mcl-1 and BMF mRNA in vemurafenib-resistant melanoma cell lines; experiment: Quantitative real-time PCR; settings: M229R; 3 μM, 48 hours
[2] = test system: matched pairs of vemurafenib naïve and resistant melanoma cell lines and melanoma cell lines with intrinsic resistance; experiment: Growth inhibition, MTT assay; type: cell-based; settings: M229/M229R, M249/M249R, WM164/WM164R, 1205Lu/1205LuR; paired t-test
Method: (§1) Growth inhibition. Cells were plated at a density of 2.5×10^4 cells per ml and left to grow overnight before being treated with increasing concentrations of vemurafenib or XL888. After 72 hours, the levels of growth inhibition were examined using the MTT assay (Smalley et al., Br. J. Cancer 96:445-9 (2007)). […] Vemurafenib and XL888 were dissolved in 100% DMSO and stored at −20° C. as a 10 mM solution.
(§2) Statistical analysis of GI50 values. Triplicate experiments were performed for each cell line under each drug treatment. To estimate the IC50 values for each cell line for each treatment, a 4-parameter Hill equation was used to model the nonlinear sigmoid relationship between the drug concentration and % cell survival. Briefly,
(§3) where x is the drug concentration, y is the % survival, ε is the error term. The four parameters in the model to estimate are: 1) the control-level effect (E); 2) the background-level effect (B); 3) the median effect concentration (GI50); and 4) the strength of the inhibition (m). The constraint of non-negative minimum background effect (B) is imposed so the model is biologically meaningful. Levenberg-Marquardt algorithm for nonlinear least squares was used to fit the model and estimate all four parameters for each cell line under each treatment. Estimated concentration at 50% cell survival, i.e., IC50, is estimated using the plugged-in parameters after model fitting. Note that when the control and background effects are 100% and 0%, respectively, the estimated GI50 and IC50 values would be identical. To compare the estimated IC50 values between the resistance and naïve paired of cell lines, after log transformation, a paired t-test was performed for each drug.

[3] = test system: RPMI 7951; experiment: Growth inhibition, MTT assay; type: cell-based; settings: Homo sapiens, RPMI 7951 (overexpression of COT), 72 hours
Method: as §1, §2, §3

[4] = test system: WM39; experiment: Growth inhibition, MTT assay; type: cell-based; settings: WM39 (amplification of cyclin D1), 72 hours
Method: as §1, §2, §3

SMILES | BMF expression [1] | difference in growth inhibition / IC50 between naïve and resistant pairs of cell lines [2] | IC50 [3] | IC50 [4]
Cn1cnc2c(F)c(Nc3ccc(Br)cc3Cl)c(C(=O)NOCCO)cc21 [MEK inhibitor] | robust induction of BMF expression |  |  | 
CCCS(=O)(=O)Nc1ccc(F)c(C(=O)c2c[nH]c3ncc(-c4ccc(Cl)cc4)cc23)c1F [vemurafenib, N-(3-{[5-(4-chlorophenyl)-1H-pyrrolo[2,3-b]pyridin-3-yl]carbonyl}-2,4-difluorophenyl)propane-1-sulfonamide] |  | statistically significant difference in the extent of growth inhibition | > 3000 nM | > 3000 nM

From patent publication US20210100777A1, “HEAT SHOCK PROTEIN (HSP) INHIBITION AND MONITORING EFFECTIVENESS THEREOF” (H. LEE MOFFITT CANCER CENTER AND RESEARCH INSTITUTE, INC., priority 2013, published 2021)
